# Laboratory results: patent publication US9738932B2, “Biomarkers for cardiovascular side-effects induced by cox-2 inhibitory compounds” (FIRALIS SAS, priority 2005, dated 2017)
# System: mRNA expression in cardiovascular tissues
# Experiment: Affymetrix GeneChip mRNA expression profiling of monkey tissues (iliac vein, pulmonary vein, aorta, carotid artery, heart) after two-week oral-gavage treatment
# Settings: iliac vein; group avg, Vioxx without A60055
smiles,measurement,value
"Cc1ccc(Nc2c(F)cccc2Cl)c(CC(=O)O)c1 [COX189, Lumiracoxib]",HFE (211329_x_at) avg fold change vs control,0.9 fold
same,HFE (211332_x_at) avg fold change vs control,1.1 fold
same,HFE (211863_x_at) avg fold change vs control,1.3 fold
same,HFE (211866_x_at) avg fold change vs control,1.2 fold
same,HHL (203020_at) avg fold change vs control,1.0 fold
same,HLA-A (211528_x_at) avg fold change vs control,1.3 fold
same,HLA-A (211529_x_at) avg fold change vs control,1.3 fold
same,HLA-A (211530_x_at) avg fold change vs control,1.6 fold
same,HLA-A (215313_x_at) avg fold change vs control,1.3 fold
same,HLA-B (208729_x_at) avg fold change vs control,1.3 fold
same,HLA-B (209140_x_at) avg fold change vs control,1.2 fold
same,HLA-B (211911_x_at) avg fold change vs control,1.3 fold
same,HLA-C (208812_x_at) avg fold change vs control,1.1 fold
same,HLA-C (214459_x_at) avg fold change vs control,1.2 fold
same,HLA-C (216526_x_at) avg fold change vs control,1.4 fold
same,HLA-DMA (217478_s_at) avg fold change vs control,1.2 fold
same,HLA-DMB (203932_at) avg fold change vs control,1.2 fold
same,HLA-DQA1 (212671_s_at) avg fold change vs control,1.6 fold
same,HLA-DQB1 (209823_x_at) avg fold change vs control,1.0 fold
same,HLA-DQB1 (211654_x_at) avg fold change vs control,1.8 fold
same,HLA-DQB1 (211656_x_at) avg fold change vs control,1.3 fold
same,HLA-DQB2 (212998_x_at) avg fold change vs control,1.4 fold
same,HLA-DRA (208894_at) avg fold change vs control,1.2 fold
same,HLA-DRA (210982_s_at) avg fold change vs control,1.1 fold
same,HLA-DRB1 (215193_x_at) avg fold change vs control,1.5 fold
same,HLA-DRB3 (209312_x_at) avg fold change vs control,1.3 fold
same,HLA-DRB6 (217362_x_at) avg fold change vs control,1.3 fold
same,HLA-E (200905_x_at) avg fold change vs control,1.2 fold
same,HLA-E (217456_x_at) avg fold change vs control,1.4 fold
same,HLA-F (204806_x_at) avg fold change vs control,1.2 fold
same,HLA-F (221875_x_at) avg fold change vs control,1.2 fold
same,ICAM1 (202638_s_at) avg fold change vs control,0.9 fold
same,ICAM1 (215485_s_at) avg fold change vs control,1.0 fold
same,ICSBP1 (204057_at) avg fold change vs control,1.2 fold
same,IFI27 (202411_at) avg fold change vs control,4.2 fold
same,IFI30 (201422_at) avg fold change vs control,1.1 fold
same,IFI44 (214453_s_at) avg fold change vs control,2.0 fold
same,IFIT1 (203153_at) avg fold change vs control,1.1 fold
same,IFIT2 (217502_at) avg fold change vs control,1.4 fold
same,IFIT4 (204747_at) avg fold change vs control,0.9 fold
same,IFITM2 (201315_x_at) avg fold change vs control,1.2 fold
same,IFITM3 (212203_x_at) avg fold change vs control,1.0 fold
same,IGF1 (209541_at) avg fold change vs control,0.9 fold
same,IGFBP4 (201508_at) avg fold change vs control,0.6 fold
same,IL1A (208200_at) avg fold change vs control,1.6 fold
same,IL2RG (204116_at) avg fold change vs control,1.3 fold
same,IL27RA (205926_at) avg fold change vs control,1.1 fold
same,INDO (210029_at) avg fold change vs control,1.2 fold
same,INPP5D (203332_s_at) avg fold change vs control,1.2 fold
same,IRF1 (202531_at) avg fold change vs control,1.3 fold
same,IRF7 (208436_s_at) avg fold change vs control,1.6 fold
same,ISGF3G (203882_at) avg fold change vs control,1.5 fold
same,ITGB2 (202803_s_at) avg fold change vs control,1.0 fold
same,JAK1 (214377_s_at) avg fold change vs control,1.1 fold
same,KLKB1 (206541_at) avg fold change vs control,1.0 fold
same,LAIR1 (208071_s_at) avg fold change vs control,1.1 fold
same,LCK (204890_s_at) avg fold change vs control,1.4 fold
same,LCP2 (205270_s_at) avg fold change vs control,1.2 fold
same,LILRB1 (207857_at) avg fold change vs control,0.7 fold
same,LILRB1 (211100_x_at) avg fold change vs control,1.0 fold
same,LILRB3 (208594_x_at) avg fold change vs control,1.0 fold
same,LILRB3 (210225_x_at) avg fold change vs control,1.1 fold
same,LRMP (204674_at) avg fold change vs control,1.6 fold
same,LY86 (205859_at) avg fold change vs control,0.9 fold
same,LY96 (206584_at) avg fold change vs control,1.0 fold
same,LYN (210754_s_at) avg fold change vs control,0.8 fold
same,MAF (209348_s_at) avg fold change vs control,0.9 fold
same,PCOLCE (202465_at) avg fold change vs control,0.8 fold
same,PLA2G4C (209785_s_at) avg fold change vs control,1.4 fold
same,PLCL2 (216217_at) avg fold change vs control,0.9 fold
same,PLSCR1 (202446_s_at) avg fold change vs control,1.0 fold
same,PRC1 (218009_s_at) avg fold change vs control,1.0 fold
same,PRG1 (201858_s_at) avg fold change vs control,0.9 fold
same,PRG1 (201859_at) avg fold change vs control,0.9 fold
same,PTPN22 (206060_s_at) avg fold change vs control,1.2 fold
same,PTPRC (207238_s_at) avg fold change vs control,1.1 fold
same,SOCS3 (206360_s_at) avg fold change vs control,1.0 fold
same,STAT1 (209969_s_at) avg fold change vs control,1.4 fold
same,STAT1 (AFFX-HUMISGF3A/M97935_5_at) avg fold change vs control,1.6 fold
same,STAT1 (AFFX-HUMISGF3A/M97935_MA_at) avg fold change vs control,1.2 fold
same,STAT1 (AFFX-HUMISGF3A/M97935_MB_at) avg fold change vs control,1.9 fold
same,TAPBP (208829_at) avg fold change vs control,1.1 fold
same,TCTEL1 (201999_s_at) avg fold change vs control,0.9 fold
same,TLR1 (210176_at) avg fold change vs control,0.8 fold
same,TLR2 (204924_at) avg fold change vs control,0.8 fold
same,TNFAIP3 (202643_s_at) avg fold change vs control,1.2 fold
same,TNFAIP3 (202644_s_at) avg fold change vs control,1.3 fold
same,TNFSF6 (210865_at) avg fold change vs control,1.3 fold
same,TNFSF10 (202687_s_at) avg fold change vs control,1.2 fold
same,TNFSF10 (202688_at) avg fold change vs control,1.2 fold
same,TRGC2 (211144_x_at) avg fold change vs control,1.3 fold
same,TRGC2 (216920_s_at) avg fold change vs control,1.1 fold
same,VCAM1 (203868_s_at) avg fold change vs control,0.9 fold
same,XCL1 (206366_x_at) avg fold change vs control,1.7 fold
same,XCL1 (214567_s_at) avg fold change vs control,1.3 fold
same,XLKD1 (219059_s_at) avg fold change vs control,1.0 fold
same,cig5 (213797_at) avg fold change vs control,1.8 fold
